Test results reported in PubChem BioAssay AID264 (DTP/NCI, 2004).
Several values for one entry are separate records, joined by “and”; a condition that tells them apart may be missing. Equal values may be shown once. Inconclusive results are not listed.

System: nude mice, LX-1 lung xenograft intrarenal, tumor weight T/C
Assay: NCI In Vivo Anticancer Drug Screen. Data for tumor model Human Lung LX-1 Xenograft (intrarenal inoculation) in NU/NU Swiss (nude) mice
Conditions: endpoint: mean tumor weight change, higher = larger tumour
Method in brief: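 Readout: T/C, i.e. treated-group tumor measurement over vehicle-control measurement. Mice bearing transplantable tumors were dosed with compound or vehicle.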

[1] = dose: 50.0 mg/kg/injection, schedule: Q01DX010 (sc), vehicle: saline with Tween-80
[2] = dose: 100.0 mg/kg/injection, schedule: Q01DX010 (sc), vehicle: saline with Tween-80
[3] = dose: 200.0 mg/kg/injection, schedule: Q01DX010 (sc), vehicle: saline with Tween-80
[4] = dose: 400.0 mg/kg/injection, schedule: Q01DX010 (sc), vehicle: saline with Tween-80
[5] = dose: 800.0 mg/kg/injection, schedule: Q01DX010 (sc), vehicle: saline with Tween-80
[6] = dose: 300.0 mg/kg/injection, schedule: Q04DX003 (sc), vehicle: saline with Tween-80
[7] = dose: 600.0 mg/kg/injection, schedule: Q04DX003 (sc), vehicle: saline with Tween-80
[8] = dose: 1200.0 mg/kg/injection, schedule: Q04DX003 (sc), vehicle: saline with Tween-80
[9] = dose: 300.0 mg/kg/injection, schedule: Q04DX003 (sc), vehicle: Klucel (hydroxypropylcellulose) (HPC)
[10] = dose: 600.0 mg/kg/injection, schedule: Q04DX003 (sc), vehicle: Klucel (hydroxypropylcellulose) (HPC)
[11] = dose: 100.0 mg/kg/injection, schedule: Q04DX003 (sc), vehicle: Klucel (hydroxypropylcellulose) (HPC)

Q: With `O=CN(SSN(C=O)C1CCCCC1)C1CCCCC1` as the molecule, how does the T/C [1] read?
A: 395 % of control

Q: What about the T/C [2] of the same molecule?
A: 104 % of control

Q: What about the T/C [3] of the same molecule?
A: 234 % of control

Q: And the T/C [4]?
A: 97 % of control and 122 % of control

Q: What about the T/C [5] of the same molecule?
A: 48 % of control

Q: What about the T/C (dose: 1600.0 mg/kg/injection, schedule: Q01DX010 (sc), vehicle: saline with Tween-80) of the same molecule?
A: 54 % of control

Q: Which results are given for `CC(=O)Nc1ccc(S(=O)(=O)CO)cc1`?
A: T/C [6]: 90 % of control; T/C [7]: 66 % of control; T/C [8]: 96 % of control; T/C (dose: 2400.0 mg/kg/injection, schedule: Q04DX003 (sc), vehicle: saline with Tween-80): 67 % of control

Q: Which T/C (dose: 0.5 mg/kg/injection, schedule: Q01DX010 (sc), vehicle: saline with Tween-80) does the source give for `COc1ccc(CC2C(=O)NC(C)C(=O)N(C)C3C(=O)N(C)C(Cc4ccc(O)c(c4)Oc4ccc(cc4)C3O)C(=O)NC(C)C(=O)NC(C)C(=O)N2C)cc1` (stereo not drawn) here?
A: 69 % of control

Q: And the T/C (dose: 1.0 mg/kg/injection, schedule: Q01DX010 (sc), vehicle: saline with Tween-80)?
A: 85 % of control

Q: And the T/C (dose: 2.0 mg/kg/injection, schedule: Q01DX010 (sc), vehicle: saline with Tween-80)?
A: 96 % of control

Q: What about the T/C (dose: 4.0 mg/kg/injection, schedule: Q01DX010 (sc), vehicle: saline with Tween-80) of the same molecule?
A: 40 % of control

Q: Which results are given for `O=C1C=C(C2OC(CO)C(O)C2O)C(=O)N1` (stereo not drawn)?
A: T/C (dose: 6.25 mg/kg/injection, schedule: Q01DX010 (sc), vehicle: saline): 37 % of control; T/C (dose: 12.5 mg/kg/injection, schedule: Q01DX010 (sc), vehicle: saline): 46 % of control; T/C (dose: 25.0 mg/kg/injection, schedule: Q01DX010 (sc), vehicle: saline): 66 % of control

Q: Which results are given for `CSCS(=O)C[C@H](CO)NC(=O)/C=C/c1c(C)[nH]c(=O)[nH]c1=O` (stereo partly drawn)?
A: T/C (dose: 0.75 mg/kg/injection, schedule: Q04DX003 (sc), vehicle: saline): 76 % of control; T/C (dose: 1.5 mg/kg/injection, schedule: Q04DX003 (sc), vehicle: saline): 70 % of control; T/C (dose: 3.0 mg/kg/injection, schedule: Q04DX003 (sc), vehicle: saline): 68 % of control

Q: For `CCCC(=O)Oc1ccc(/C=N/NC(N)=S)nc1`, which T/C [1] is on record?
A: 91 % of control

Q: And the T/C [2]?
A: 110 % of control

Q: What about the T/C [3] of the same molecule?
A: 40 % of control

Q: And the T/C [4]?
A: 15 % of control

Q: `Clc1ccc(CN2COc3c(ccc4cccnc34)C2)cc1Cl` was tested. Which T/C [2] did it give?
A: 110 % of control

Q: And the T/C [3]?
A: 87 % of control

Q: And the T/C [4]?
A: 97 % of control

Q: What about the T/C [5] of the same molecule?
A: 110 % of control

Q: With `COc1cc([C@@H]2c3cc4c(c(O)c3C[C@H]3COC(=O)[C@@H]32)OCO4)cc(OC)c1OC` as the molecule, how does the T/C (dose: 0.25 mg/kg/injection, schedule: Q01DX010 (sc), vehicle: saline) read?
A: 91 % of control

Q: What about the T/C (dose: 0.5 mg/kg/injection, schedule: Q01DX010 (sc), vehicle: saline) of the same molecule?
A: 50 % of control

Q: What about the T/C (dose: 1.0 mg/kg/injection, schedule: Q01DX010 (sc), vehicle: saline) of the same molecule?
A: 58 % of control

Q: And the T/C (dose: 2.0 mg/kg/injection, schedule: Q01DX010 (sc), vehicle: saline)?
A: 71 % of control and 73 % of control

Q: And the T/C (dose: 4.0 mg/kg/injection, schedule: Q01DX010 (sc), vehicle: saline)?
A: 117 % of control

Q: What about the T/C (dose: 8.0 mg/kg/injection, schedule: Q01DX010 (sc), vehicle: saline) of the same molecule?
A: 168 % of control

Q: For `Nc1nc(N)c2c(Cl)c(CNc3ccc(Cl)c(Cl)c3)ccc2n1`, which T/C (dose: 25.0 mg/kg/injection, schedule: Q01DX010 (sc), vehicle: saline with Tween-80) is on record?
A: 111 % of control

Q: `CC1(C)OCC2OC=CC(=O)C2O1` (stereo not drawn) was tested. Which T/C [6] did it give?
A: 89 % of control

Q: For `C[C@]12CC[C@@H]3c4ccc(OC(=O)Cc5ccc(N(CCCl)CCCl)cc5)cc4CC[C@H]3[C@@H]1CC[C@@H]2OC(=O)Cc1ccc(N(CCCl)CCCl)cc1`, which T/C (dose: 200.0 mg/kg/injection, schedule: Q04DX003 (sc), vehicle: saline with Tween-80) is on record?
A: 83 % of control

Q: And the T/C (dose: 400.0 mg/kg/injection, schedule: Q04DX003 (sc), vehicle: saline with Tween-80)?
A: 107 % of control

Q: What about the T/C (dose: 800.0 mg/kg/injection, schedule: Q04DX003 (sc), vehicle: saline with Tween-80) of the same molecule?
A: 116 % of control

Q: And the T/C (dose: 1600.0 mg/kg/injection, schedule: Q04DX003 (sc), vehicle: saline with Tween-80)?
A: 90 % of control

Q: Which T/C [7] does the source give for `BrC1c2cccc3cccc(c23)C1Br` (stereo not drawn) here?
A: 155 % of control

Q: What about the T/C [8] of the same molecule?
A: 96 % of control

Q: How did the T/C (dose: 150.0 mg/kg/injection, schedule: Q04DX003 (sc), vehicle: Klucel (hydroxypropylcellulose) (HPC)) turn out when `O=S(=O)(O)O` was run?
A: 70 % of control

Q: What about the T/C [9] of the same molecule?
A: 167 % of control

Q: What about the T/C [10] of the same molecule?
A: 73 % of control

Q: `O=Cc1ccccc1` was tested. Which T/C [11] did it give?
A: 64 % of control

Q: And the T/C (dose: 200.0 mg/kg/injection, schedule: Q04DX003 (sc), vehicle: Klucel (hydroxypropylcellulose) (HPC))?
A: 75 % of control

Q: And the T/C (dose: 400.0 mg/kg/injection, schedule: Q04DX003 (sc), vehicle: Klucel (hydroxypropylcellulose) (HPC))?
A: 73 % of control

Q: What about the T/C (dose: 800.0 mg/kg/injection, schedule: Q04DX003 (sc), vehicle: Klucel (hydroxypropylcellulose) (HPC)) of the same molecule?
A: 112 % of control

Q: With `O=C(N/N=C\c1cc(Br)cc(Br)c1O)N/N=C/c1cc(Br)cc(Br)c1O` as the molecule, how does the T/C [1] read?
A: 373 % of control

Q: What about the T/C [5] of the same molecule?
A: 67 % of control

Q: `CCC1CC2CN(CCc3c([nH]c4ccccc34)C(C(=O)OC)(c3cc4c(cc3OC)N(C)C3C(O)(C(=O)OC)C(OC(C)=O)C5(CC)C=CCN6CCC43C65)C2)C1` (stereo not drawn) was tested. Which T/C (dose: 4.0 mg/kg/injection, schedule: Q04DX003 (sc), vehicle: saline) did it give?
A: 63 % of control and 64 % of control

Q: And the T/C (dose: 4.0 mg/kg/injection, schedule: Q04DX003 (sc), vehicle: suspension in saline)?
A: 31 % of control and 33 % of control

Q: And the T/C (dose: 16.0 mg/kg/injection, schedule: Q04DX003 (sc), vehicle: saline)?
A: 6 % of control and 12 % of control

Q: `O=[N+]([O-])c1nccn1CC(O)CO` (stereo not drawn) was tested. Which T/C (dose: 600.0 mg/kg/injection, schedule: Q04DX003 (sc), vehicle: saline) did it give?
A: 91 % of control

Q: And the T/C (dose: 1200.0 mg/kg/injection, schedule: Q04DX003 (sc), vehicle: saline)?
A: 78 % of control

Q: And the T/C (dose: 2400.0 mg/kg/injection, schedule: Q04DX003 (sc), vehicle: saline)?
A: 108 % of control

Q: What does the source list for `Cc1ccc(NCC2(/N=C/c3ccccc3)OC(CO)C(O)C2O)cc1` (stereo not drawn)?
A: T/C [9]: 122 % of control; T/C [10]: 98 % of control; T/C (dose: 1200.0 mg/kg/injection, schedule: Q04DX003 (sc), vehicle: Klucel (hydroxypropylcellulose) (HPC)): 80 % of control; T/C (dose: 2400.0 mg/kg/injection, schedule: Q04DX003 (sc), vehicle: Klucel (hydroxypropylcellulose) (HPC)): 98 % of control

Q: With `BrC1CC(Br)c2c1c1c(c3c2C(Br)CC3Br)C(Br)CC1Br` (stereo not drawn) as the molecule, how does the T/C (dose: 300.0 mg/kg/injection, schedule: Q04DX003 (sc), vehicle: water) read?
A: 46 % of control

Q: And the T/C (dose: 600.0 mg/kg/injection, schedule: Q04DX003 (sc), vehicle: water)?
A: 43 % of control

Q: What about the T/C (dose: 1200.0 mg/kg/injection, schedule: Q04DX003 (sc), vehicle: water) of the same molecule?
A: 29 % of control

Q: What about the T/C (dose: 2400.0 mg/kg/injection, schedule: Q04DX003 (sc), vehicle: water) of the same molecule?
A: 29 % of control

Q: `COc1ccc(Cl)[n+]([O-])n1` was tested. Which T/C (dose: 25.0 mg/kg/injection, schedule: Q04DX003 (sc), vehicle: Klucel (hydroxypropylcellulose) (HPC)) did it give?
A: 83 % of control

Q: And the T/C (dose: 50.0 mg/kg/injection, schedule: Q04DX003 (sc), vehicle: Klucel (hydroxypropylcellulose) (HPC))?
A: 60 % of control

Q: And the T/C [11]?
A: 80 % of control

Q: How did the T/C (dose: 50.0 mg/kg/injection, schedule: Q04DX003 (sc), vehicle: suspension in saline) turn out when `C=C1C(=O)OCC1C(=O)O` (stereo not drawn) was run?
A: 123 % of control

Q: What about the T/C (dose: 100.0 mg/kg/injection, schedule: Q04DX003 (sc), vehicle: suspension in saline) of the same molecule?
A: 95 % of control

Q: What about the T/C (dose: 200.0 mg/kg/injection, schedule: Q04DX003 (sc), vehicle: suspension in saline) of the same molecule?
A: 99 % of control

Q: With `N/C(=N\O)c1cn(C2OC(CO)C(O)C2O)c2ncnc(N)c12` (stereo not drawn) as the molecule, how does the T/C (dose: 2.5 mg/kg/injection, schedule: Q04DX003 (sc), vehicle: Klucel (hydroxypropylcellulose) (HPC)) read?
A: 95 % of control

Q: What about the T/C (dose: 5.0 mg/kg/injection, schedule: Q04DX003 (sc), vehicle: Klucel (hydroxypropylcellulose) (HPC)) of the same molecule?
A: 99 % of control

Q: And the T/C (dose: 10.0 mg/kg/injection, schedule: Q04DX003 (sc), vehicle: Klucel (hydroxypropylcellulose) (HPC))?
A: 81 % of control

Q: What about the T/C (dose: 20.0 mg/kg/injection, schedule: Q04DX003 (sc), vehicle: Klucel (hydroxypropylcellulose) (HPC)) of the same molecule?
A: 44 % of control

Q: Which T/C (dose: 75.0 mg/kg/injection, schedule: Q04DX003 (sc), vehicle: saline with Tween-80) does the source give for `CCCCCCCCCCCCCC#CC(=O)O` here?
A: 89 % of control

Q: And the T/C (dose: 150.0 mg/kg/injection, schedule: Q04DX003 (sc), vehicle: saline with Tween-80)?
A: 112 % of control

Q: What about the T/C [6] of the same molecule?
A: 105 % of control
